Counter-ions that a name gives are not always drawn.
Biological target: rat TRPV1 (Rattus norvegicus (Rat), UniProt O35433)
Details: read-out: Rat IC50

Chain of rat TRPV1 (O35433 whole entry): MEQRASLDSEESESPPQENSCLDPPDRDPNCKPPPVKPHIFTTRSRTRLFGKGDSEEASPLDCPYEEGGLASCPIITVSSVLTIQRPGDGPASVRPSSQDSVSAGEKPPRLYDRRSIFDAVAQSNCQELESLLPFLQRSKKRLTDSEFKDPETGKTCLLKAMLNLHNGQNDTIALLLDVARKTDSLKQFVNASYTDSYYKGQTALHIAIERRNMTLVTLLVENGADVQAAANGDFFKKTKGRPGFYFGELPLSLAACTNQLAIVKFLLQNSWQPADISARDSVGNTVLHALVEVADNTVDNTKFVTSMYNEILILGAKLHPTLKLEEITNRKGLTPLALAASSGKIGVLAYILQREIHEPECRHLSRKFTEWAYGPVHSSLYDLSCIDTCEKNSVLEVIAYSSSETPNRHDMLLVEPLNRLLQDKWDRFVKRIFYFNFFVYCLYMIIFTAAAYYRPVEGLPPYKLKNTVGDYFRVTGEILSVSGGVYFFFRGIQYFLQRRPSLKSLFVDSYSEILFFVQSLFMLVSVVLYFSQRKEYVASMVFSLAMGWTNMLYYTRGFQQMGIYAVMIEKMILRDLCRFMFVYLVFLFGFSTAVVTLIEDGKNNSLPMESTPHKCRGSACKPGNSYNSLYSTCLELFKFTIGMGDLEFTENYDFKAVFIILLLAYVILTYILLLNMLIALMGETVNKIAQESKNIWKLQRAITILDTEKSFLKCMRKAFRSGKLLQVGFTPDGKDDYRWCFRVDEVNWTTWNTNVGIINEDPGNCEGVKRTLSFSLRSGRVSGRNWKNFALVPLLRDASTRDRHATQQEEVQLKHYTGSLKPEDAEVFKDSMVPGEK

**Q.** Which IC50 does the source give for `Cc1cc(C(F)(F)F)ccc1Nc1nc(N2CCCC2C(C)C)nc2c1CCN(c1ncccc1C(F)(F)F)CC2` (stereo not drawn) [Example 269, 2-[2-(1-Methylethyl)pyrrolidin-1-yl]-N-[2-methyl-4-(trifluoromethyl)phenyl]-7-[3-(trifluoromethyl)pyridin-2-yl]-6,7,8,9-tetrahydro-5H-pyrimido[4,5-d]azepin-4-amine] here?
**A.** 180 nM

**Q.** `OCC1CN(c2nc3c(c(Nc4ccc(C(F)(F)F)cc4)n2)CCN(c2ncccc2C(F)(F)F)CC3)CCO1` (stereo not drawn) [Example 271, [4-(4-{[4-(Trifluoromethyl)phenyl]amino}-7-[3-(trifluoromethyl)pyridin-2-yl]-6,7,8,9-tetrahydro-5H-pyrimido[4,5-d]azepin-2-yl)morpholin-2-yl]methanol] was tested. Which IC50 did it give?
**A.** 840 nM

**Q.** Which IC50 does the source give for `CC(C)c1nc2c(c(Nc3cccc(C(F)(F)F)c3)n1)CCN(c1ncccc1C(F)(F)F)CC2` [Example 10, [2-Isopropyl-7-(3-trifluoromethyl-pyridin-2-yl)-6,7,8,9-tetrahydro-5H-pyrimido[4,5-d]azepin-4-yl]-(3-trifluoromethyl-phenyl)-amine] here?
**A.** 930 nM

**Q.** Which IC50 does the source give for `FC(F)(F)c1ccc(Nc2nc(OC3CCCCCC3)nc3c2CCN(c2ncccc2C(F)(F)F)CC3)cc1` [Example 336, 2-(Cycloheptyloxy)-N-[4-(trifluoromethyl)phenyl]-7-[3-(trifluoromethyl)pyridin-2-yl]-6,7,8,9-tetrahydro-5H-pyrimido[4,5-d]azepin-4-amine] here?
**A.** 1640 nM

**Q.** How did the IC50 turn out when `FC(F)(F)c1ccc(Nc2nc(SC3CCCCC3)nc3c2CCN(c2ncccc2C(F)(F)F)CC3)cc1` [Example 354, 2-(Cyclohexylsulfanyl)-N-[4-(trifluoromethyl)phenyl]-7-[3-(trifluoromethyl)pyridin-2-yl]-6,7,8,9-tetrahydro-5H-pyrimido[4,5-d]azepin-4-amine] was run?
**A.** 250 nM

**Q.** With `CC(C)c1nc2c(c(Nc3ccc(C(F)(F)F)nc3)n1)CCN(c1ncccc1S(C)(=O)=O)CC2` [Example 282, 2-(1-Methylethyl)-7-[3-(methylsulfonyl)pyridin-2-yl]-N-[6-(trifluoromethyl)pyridin-3-yl]-6,7,8,9-tetrahydro-5H-pyrimido[4,5-d]azepin-4-amine] as the molecule, how does the IC50 read?
**A.** 130 nM

**Q.** For `CC(C)c1nc2c(c(Nc3ccc(N4CCCC4)cc3)n1)CCN(c1ncccc1C(F)(F)F)CC2` [Example 377, 2-(1-Methylethyl)-N-(4-pyrrolidin-1-ylphenyl)-7-[3-(trifluoromethyl)pyridin-2-yl]-6,7,8,9-tetrahydro-5H-pyrimido[4,5-d]azepin-4-amine], which IC50 is on record?
**A.** 1410 nM

**Q.** For `CC(C)c1nc2c(c(NCc3ccc(Cl)c(C(F)(F)F)c3)n1)CCN(c1ncccc1C(F)(F)F)CC2` [Example 115, N-{[4-Chloro-3-(trifluoromethyl)phenyl]methyl}-2-(1-methylethyl)-7-[3-(trifluoromethyl)pyridin-2-yl]-6,7,8,9-tetrahydro-5H-pyrimido[4,5-d]azepin-4-amine], which IC50 is on record?
**A.** 3790 nM

**Q.** How did the IC50 turn out when `CC(C)(C)c1ccc(Nc2nc(S(C)(=O)=O)nc3c2CCN(c2ncccc2C(F)(F)F)CC3)cc1` [Example 207, N-[4-(1,1-Dimethylethyl)phenyl]-2-(methylsulfonyl)-7-[3-(trifluoromethyl)pyridin-2-yl]-6,7,8,9-tetrahydro-5H-pyrimido[4,5-d]azepin-4-amine] was run?
**A.** 770 nM

**Q.** For `FC(F)(F)c1cccnc1N1CCc2nc(N3CCCCC3)nc(NCc3ccc(Cl)c(Cl)c3)c2CC1` [Example 251, N-[(3,4-Dichlorophenyl)methyl]-2-piperidin-1-yl-7-[3-(trifluoromethyl)pyridin-2-yl]-6,7,8,9-tetrahydro-5H-pyrimido[4,5-d]azepin-4-amine], which IC50 is on record?
**A.** 1980 nM

**Q.** For `CN1CCN(c2nc3c(c(Nc4ccc(C(F)(F)F)cn4)n2)CCN(c2ncccc2C(F)(F)F)CC3)CC1` [Example 193, 2-(4-Methylpiperazin-1-yl)-7-[3-(trifluoromethyl)pyridin-2-yl]-N-[5-(trifluoromethyl)pyridin-2-yl]-6,7,8,9-tetrahydro-5H-pyrimido[4,5-d]azepin-4-amine], which IC50 is on record?
**A.** 2110 nM

**Q.** `COCCN(C)c1nc2c(c(Nc3ccc(C(F)(F)F)nc3)n1)CCN(c1ncccc1C(F)(F)F)CC2` [Example 228, N^2-Methyl-N^2-[2-(methyloxy)ethyl]-7-[3-(trifluoromethyl)pyridin-2-yl]-N^4-[6-(trifluoromethyl)pyridin-3-yl]-6,7,8,9-tetrahydro-5H-pyrimido[4,5-d]azepine-2,4-diamine trifluoroacetic acid salt] was tested. Which IC50 did it give?
**A.** 40 nM

**Q.** Which IC50 does the source give for `Cc1cccc(Nc2nc3c(c(Nc4ccc(C(F)(F)F)cc4)n2)CCN(c2ncccc2C(F)(F)F)CC3)c1` [Example 279, N^2-(3-Methylphenyl)-N^4-[4-(trifluoromethyl)phenyl]-7-[3-(trifluoromethyl)pyridin-2-yl]-6,7,8,9-tetrahydro-5H-pyrimido[4,5-d]azepine-2,4-diamine trifluoroacetic acid salt] here?
**A.** > 6670 nM

**Q.** For `COCc1nc2c(c(Nc3ccc(C(C)(C)C)cc3)n1)CCN(c1ncccc1C(F)(F)F)CC2` [Example 67B, (4-tert-Butyl-phenyl)-[2-methoxymethyl-7-(3-trifluoromethyl-pyridin-2-yl)-6,7,8,9-tetrahydro-5H-pyrimido[4,5-d]azepin-4-yl]-amine trifluoroacetic acid salt], which IC50 is on record?
**A.** 34 nM

**Q.** `FC(F)(F)c1ccc(Nc2nc(N3CCNCC3)nc3c2CCN(c2ncccc2C(F)(F)F)CC3)cc1` [Example 99B, [2-Piperazin-1-yl-7-(3-trifluoromethyl-pyridin-2-yl)-6,7,8,9-tetrahydro-5H-pyrimido[4,5-d]azepin-4-yl]-(4-trifluoromethyl-phenyl)-amine trifluoroacetic acid salt] was tested. Which IC50 did it give?
**A.** 7200 nM

**Q.** `CC(C)c1nc2c(c(Nc3ccc(C(C)(C)C)cc3)n1)CCN(c1ncc([N+](=O)[O-])cc1C(F)(F)F)CC2` [Example 290, N-[4-(1,1-Dimethylethyl)phenyl]-2-(1-methylethyl)-7-[5-nitro-3-(trifluoromethyl)pyridin-2-yl]-6,7,8,9-tetrahydro-5H-pyrimido[4,5-d]azepin-4-amine] was tested. Which IC50 did it give?
**A.** 100 nM

**Q.** For `CSc1ccc(Nc2nc(N3CCCCC3)nc3c2CCN(c2ncccc2C(F)(F)F)CC3)cc1` [Example 160, N-[4-(Methylsulfanyl)phenyl]-2-piperidin-1-yl-7-[3-(trifluoromethyl)pyridin-2-yl]-6,7,8,9-tetrahydro-5H-pyrimido[4,5-d]azepin-4-amine], which IC50 is on record?
**A.** 100 nM

**Q.** Which IC50 does the source give for `CC(C)c1nc2c(c(Nc3ccc4c(c3)N(C)CCC4)n1)CCN(c1ncccc1C(F)(F)F)CC2` [Example 161, [2-Isopropyl-7-(3-trifluoromethyl-pyridin-2-yl)-6,7,8,9-tetrahydro-5H-pyrimido[4,5-d]azepin-4-yl]-(1-methyl-1,2,3,4-tetrahydro-quinolin-7-yl)-amine] here?
**A.** 130 nM

**Q.** How did the IC50 turn out when `CC(C)(C#N)c1ccc(Nc2nc(N3CCOCC3)nc3c2CCN(c2ncccc2C(F)(F)F)CC3)cc1` [Example 382, 2-Methyl-2-{4-[2-morpholin-4-yl-7-(3-trifluoromethyl-pyridin-2-yl)-6,7,8,9-tetrahydro-5H-pyrimido[4,5-d]azepin-4-ylamino]-phenyl}-propionitrile] was run?
**A.** 40 nM

**Q.** With `Fc1cc(Nc2nc(N3CCCCC3)nc3c2CCN(c2ncccc2C(F)(F)F)CC3)ccc1C(F)(F)F` [Example 157, N-[3-Fluoro-4-(trifluoromethyl)phenyl]-2-piperidin-1-yl-7-[3-(trifluoromethyl)pyridin-2-yl]-6,7,8,9-tetrahydro-5H-pyrimido[4,5-d]azepin-4-amine] as the molecule, how does the IC50 read?
**A.** 70 nM

**Q.** How did the IC50 turn out when `CN1CCN(c2nc3c(c(Nc4ccc(C(F)(F)F)nc4)n2)CCN(c2ncccc2C(F)(F)F)CC3)CC1` [Example 220, 2-(4-Methylpiperazin-1-yl)-7-[3-(trifluoromethyl)pyridin-2-yl]-N-[6-(trifluoromethyl)pyridin-3-yl]-6,7,8,9-tetrahydro-5H-pyrimido[4,5-d]azepin-4-amine] was run?
**A.** 1520 nM

**Q.** Which IC50 does the source give for `CN1CCC(C)(C)c2ccc(Nc3nc(N4CCCCC4)nc4c3CCN(c3ncccc3C(F)(F)F)CC4)cc21` [Example 164, [2-Piperidin-1-yl-7-(3-trifluoromethyl-pyridin-2-yl)-6,7,8,9-tetrahydro-5H-pyrimido[4,5-d]azepin-4-yl]-(1,4,4-trimethyl-1,2,3,4-tetrahydro-quinolin-7-yl)-amine hydrochloride salt] here?
**A.** 20 nM

**Q.** `Fc1cccnc1N1CCc2ncnc(Nc3ccc(C(F)(F)F)cc3)c2CC1` [Example 295, 7-(3-Fluoropyridin-2-yl)-N-[4-(trifluoromethyl)phenyl]-6,7,8,9-tetrahydro-5H-pyrimido[4,5-d]azepin-4-amine] was tested. Which IC50 did it give?
**A.** 10400 nM

**Q.** For `CN1CCN(c2nc3c(c(Nc4ccc(C(F)(F)F)c(Cl)c4)n2)CCN(c2ncccc2C(F)(F)F)CC3)CC1` [Example 221, N-[3-Chloro-4-(trifluoromethyl)phenyl]-2-(4-methylpiperazin-1-yl)-7-[3-(trifluoromethyl)pyridin-2-yl]-6,7,8,9-tetrahydro-5H-pyrimido[4,5-d]azepin-4-amine], which IC50 is on record?
**A.** 720 nM

**Q.** Which IC50 does the source give for `CC(C)c1nc2c(c(Nc3ccc(C(F)(F)F)cc3)n1)CCN(c1ncc(C(=O)O)cc1Cl)CC2` [Example 288, 5-Chloro-6-[2-(1-methylethyl)-4-{[4-(trifluoromethyl)phenyl]amino}-5,6,8,9-tetrahydro-7H-pyrimido[4,5-d]azepin-7-yl]pyridine-3-carboxylic acid trifluoroacetic acid salt] here?
**A.** 2020 nM

**Q.** Which IC50 does the source give for `CC(C)Oc1nc2c(c(Nc3ccc(C(F)(F)F)cc3)n1)CCN(c1ncccc1C(F)(F)F)CC2` [Example 341, 2-[(1-Methylethyl)oxy]l-N-[4-(trifluoromethyl)phenyl]-7-[3-(trifluoromethyl)pyridin-2-yl]-6,7,8,9-tetrahydro-5H-pyrimido[4,5-d]azepin-4-amine trifluoroacetic acid salt] here?
**A.** 150 nM

Same assay, conditions: read-out: Rat IC50; hydrochloride salt

**Q.** Which IC50 does the source give for `FC(F)(F)c1ccc(Nc2nc(N3CCCCC3)nc3c2CCN(c2ncccc2C(F)(F)F)CC3)cc1` [Example 39A, [2-Piperidin-1-yl-7-(3-trifluoromethyl-pyridin-2-yl)-6,7,8,9-tetrahydro-5H-pyrimido[4,5-d]azepin-4-yl]-(4-trifluoromethyl-phenyl)-amine hydrochloride salt] here?
**A.** 23 nM
